ChEMBL document CHEMBL4020815 (J Med Chem, 2017)

Experiments:
[1] = Permeability across apical to basolateral side in MDCK cells at 20 uM; assay type: ADME, cell-based, Canis lupus familiaris; conditions: dog
[2] = Plasma concentration in CD-1 mouse at 10 mg/kg, po after 1 hr by LC-MS/MS method; assay type: ADME, organism-based
[3] = Fraction unbound in CD-1 mouse plasma; assay type: ADME, cell-free
NCI-H460 [4] = assay: Cytotoxicity against human NCI-H460 cells assessed as growth inhibition using low folate media after 7 days by Alamar blue assay; assay type: functional; conditions: NCI-H460, 168 h
NCI-H460 [5] = assay: Cytotoxicity against human NCI-H460 cells assessed as growth inhibition using regular folate media after 7 days by Alamar blue assay; assay type: functional; conditions: NCI-H460, 168 h
MDA-MB-231 = assay: Cytotoxicity against human MDA-MB-231 cells assessed as growth inhibition using regular folate media after 7 days by Alamar blue assay; assay type: functional; conditions: MDA-MB-231, 168 h
Mus musculus [6] = assay: Unbound clearance in CD-1 mouse at 1 mg/kg, iv by LC-MS/MS method; assay type: ADME, organism-based; conditions: in vivo
Mus musculus [7] = assay: Unbound volume of distribution at steady state in CD-1 mouse at 1 mg/kg, iv by LC-MS/MS method; assay type: ADME, organism-based; conditions: in vivo
Mus musculus [8] = assay: Unbound AUC in CD-1 mouse at 10 mg/kg, po by LC-MS/MS method; assay type: ADME, organism-based; conditions: in vivo
Mus musculus [9] = assay: Unbound Cmax in CD-1 mouse at 10 mg/kg, po by LC-MS/MS method; assay type: ADME, organism-based; conditions: in vivo
Mus musculus [10] = assay: In vivo inhibition of AICARFT in tumor of low folate diet fed nude mouse xenografted with human NCI-H460 cells assessed as increase in intratumoral ZMP levels at 0.3 to 30 mg/kg after 4 hrs relative to vehicle-treated control; assay type: functional
Mus musculus [11] = assay: In vivo inhibition of AICARFT in tumor of low folate diet fed nude mouse xenografted with human NCI-H460 cells assessed as increase in circulating AICAr levels at 0.3 to 30 mg/kg after 4 hrs relative to vehicle-treated control; assay type: functional
[12] = molecular target: T1, Serine hydroxymethyltransferase, cytosolic (Homo sapiens, UniProt P34896); assay: Inhibition of SHMT1 (unknown origin) using serine/THF as substrate after 50 mins by HPLC method
T1 sequence (P34896 whole entry): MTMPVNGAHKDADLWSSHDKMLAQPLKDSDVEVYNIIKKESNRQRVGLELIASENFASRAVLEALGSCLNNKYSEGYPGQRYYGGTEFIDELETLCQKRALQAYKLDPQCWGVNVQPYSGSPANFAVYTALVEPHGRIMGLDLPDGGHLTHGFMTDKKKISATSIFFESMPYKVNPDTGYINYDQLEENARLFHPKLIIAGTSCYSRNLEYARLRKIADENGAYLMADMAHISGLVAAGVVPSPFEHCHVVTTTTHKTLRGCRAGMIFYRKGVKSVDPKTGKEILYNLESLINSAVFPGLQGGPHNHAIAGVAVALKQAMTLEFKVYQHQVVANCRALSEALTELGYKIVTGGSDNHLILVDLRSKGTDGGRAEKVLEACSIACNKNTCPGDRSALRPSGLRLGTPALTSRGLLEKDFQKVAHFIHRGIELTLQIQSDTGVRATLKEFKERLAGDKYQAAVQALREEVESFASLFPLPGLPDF

[13] = molecular target: T2, Bifunctional methylenetetrahydrofolate dehydrogenase/cyclohydrolase, mitochondrial (Homo sapiens, UniProt P13995); assay: Inhibition of MTHFD2 (unknown origin) using NAD/5,10-methylene THF as substrate after 30 mins by HPLC method
T2 sequence (P13995 whole entry): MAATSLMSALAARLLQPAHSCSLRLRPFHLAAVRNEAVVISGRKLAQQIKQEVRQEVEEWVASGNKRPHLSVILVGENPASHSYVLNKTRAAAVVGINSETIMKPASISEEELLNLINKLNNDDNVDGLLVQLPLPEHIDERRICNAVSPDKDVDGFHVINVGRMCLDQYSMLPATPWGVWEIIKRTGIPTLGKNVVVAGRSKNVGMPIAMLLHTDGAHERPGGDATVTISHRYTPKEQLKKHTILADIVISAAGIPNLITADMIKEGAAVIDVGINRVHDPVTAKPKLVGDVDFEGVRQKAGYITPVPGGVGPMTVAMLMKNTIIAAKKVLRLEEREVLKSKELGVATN

[14] = molecular target: T3, Bifunctional methylenetetrahydrofolate dehydrogenase/cyclohydrolase 2, mitochondrial (Homo sapiens, UniProt Q9H903); assay: Inhibition of MTHFD2L (unknown origin) using NAD/5,10-methylene THF as substrate after 2 hrs by HPLC method
T3 sequence (Q9H903 whole entry): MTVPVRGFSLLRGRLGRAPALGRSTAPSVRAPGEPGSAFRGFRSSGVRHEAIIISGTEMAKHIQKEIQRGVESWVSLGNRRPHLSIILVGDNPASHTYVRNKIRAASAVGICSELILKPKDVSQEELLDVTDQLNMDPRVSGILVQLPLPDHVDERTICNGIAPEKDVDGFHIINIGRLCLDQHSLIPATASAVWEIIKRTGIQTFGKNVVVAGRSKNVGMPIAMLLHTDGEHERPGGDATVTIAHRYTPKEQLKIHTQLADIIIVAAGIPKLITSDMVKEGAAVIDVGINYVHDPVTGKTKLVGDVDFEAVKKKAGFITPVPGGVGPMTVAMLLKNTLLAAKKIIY

[15] = Drug metabolism in microsomes (unknown origin); assay type: ADME, Microsome; conditions: read-out: Drug metabolism
CYP3A4 = CYP3A4 (Homo sapiens, UniProt P08684); assay: Inhibition of human CYP3A4 at 10 uM relative to control; assay type: ADME
CYP3A4, sequence (P08684 whole entry): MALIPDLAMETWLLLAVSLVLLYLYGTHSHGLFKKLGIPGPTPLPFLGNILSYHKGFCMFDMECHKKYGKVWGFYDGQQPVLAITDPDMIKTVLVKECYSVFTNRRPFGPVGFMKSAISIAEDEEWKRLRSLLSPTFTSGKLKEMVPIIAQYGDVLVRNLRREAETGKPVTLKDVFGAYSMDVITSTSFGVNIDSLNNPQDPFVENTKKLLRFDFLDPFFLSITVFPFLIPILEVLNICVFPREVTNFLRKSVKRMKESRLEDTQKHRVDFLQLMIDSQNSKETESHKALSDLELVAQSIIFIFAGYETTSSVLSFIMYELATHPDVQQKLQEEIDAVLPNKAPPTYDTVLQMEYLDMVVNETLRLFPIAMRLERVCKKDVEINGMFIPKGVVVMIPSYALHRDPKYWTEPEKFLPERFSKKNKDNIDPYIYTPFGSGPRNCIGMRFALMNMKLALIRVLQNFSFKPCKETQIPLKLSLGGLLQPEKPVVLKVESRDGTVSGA

CYP2D6 = CYP2D6 (Homo sapiens, UniProt P10635); assay: Inhibition of human CYP2D6 at 10 uM relative to control; assay type: ADME
CYP2D6, sequence (P10635 whole entry): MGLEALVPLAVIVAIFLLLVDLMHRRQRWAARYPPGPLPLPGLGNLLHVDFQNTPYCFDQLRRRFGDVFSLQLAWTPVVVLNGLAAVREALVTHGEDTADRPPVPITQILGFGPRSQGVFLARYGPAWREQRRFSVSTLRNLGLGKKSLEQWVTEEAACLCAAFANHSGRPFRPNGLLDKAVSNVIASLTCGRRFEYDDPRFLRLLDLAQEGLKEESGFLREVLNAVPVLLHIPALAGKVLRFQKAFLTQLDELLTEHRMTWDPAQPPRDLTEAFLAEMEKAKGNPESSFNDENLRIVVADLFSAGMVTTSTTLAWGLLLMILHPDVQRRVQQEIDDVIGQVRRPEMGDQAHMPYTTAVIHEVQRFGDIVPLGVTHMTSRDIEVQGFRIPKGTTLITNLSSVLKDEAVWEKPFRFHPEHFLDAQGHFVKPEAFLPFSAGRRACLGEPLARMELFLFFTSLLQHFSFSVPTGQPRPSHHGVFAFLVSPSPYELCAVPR

CYP2C9 = CYP2C9 (Homo sapiens, UniProt P11712); assay: Inhibition of human CYP2C9 at 10 uM relative to control; assay type: ADME
CYP2C9, sequence (P11712 whole entry): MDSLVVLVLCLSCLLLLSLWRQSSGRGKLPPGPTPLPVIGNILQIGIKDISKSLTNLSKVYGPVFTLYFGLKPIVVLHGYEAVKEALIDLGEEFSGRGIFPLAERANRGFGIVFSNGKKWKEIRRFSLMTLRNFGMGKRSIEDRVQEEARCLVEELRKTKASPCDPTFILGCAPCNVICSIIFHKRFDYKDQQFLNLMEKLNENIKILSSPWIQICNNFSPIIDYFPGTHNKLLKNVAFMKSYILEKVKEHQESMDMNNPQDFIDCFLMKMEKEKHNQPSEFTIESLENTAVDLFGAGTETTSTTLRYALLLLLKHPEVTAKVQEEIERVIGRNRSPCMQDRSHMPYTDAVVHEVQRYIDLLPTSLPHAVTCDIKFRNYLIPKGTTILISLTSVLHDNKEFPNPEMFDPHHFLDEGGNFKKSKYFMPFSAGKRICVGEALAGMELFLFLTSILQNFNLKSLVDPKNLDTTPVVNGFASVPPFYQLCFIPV

[16] = Antiproliferative activity against human MDA-MB-231met2 cells by Alamar blue assay; assay type: functional, cell-based
[17] = Antitumor activity against human MDA-MB-231met2 cells xenografted in athymic nude mouse assessed as tumor volume at 30 mg/kg, bid administered via oral gavage for 22 days relative to control; assay type: functional
Mus musculus [18] = assay: Toxicity in athymic nude mouse xenografted with human MDA-MB-231met2 cells assessed as body weight loss at 30 to 60 mg/kg, bid administered via oral gavage for 22 days; assay type: organism-based; conditions: in vivo, 528 h
Mus musculus [19] = assay: In vivo inhibition of AICARFT in tumor of athymic nude mouse xenografted with human MDA-MB-231met2 cells assessed as increase in AICAr levels at 30 mg/kg, bid administered via oral gavage for 22 days relative to control; assay type: functional
Mus musculus [20] = assay: In vivo inhibition of AICARFT in tumor of athymic nude mouse xenografted with human MDA-MB-231met2 cells assessed as increase in ZMP levels at 30 mg/kg, bid administered via oral gavage for 22 days relative to control; assay type: functional
Mus musculus [21] = assay: In vivo inhibition of AICARFT in tumor of athymic nude mouse xenografted with human MDA-MB-231met2 cells assessed as increase in ZMP levels at 60 mg/kg, bid administered via oral gavage for 22 days relative to control; assay type: functional
MDA-MB-231met2 = assay: Antitumor activity against human MDA-MB-231met2 cells xenografted in athymic nude mouse assessed as tumor growth inhibition administered as bid via oral gavage for 22 days; assay type: functional, cell-based

Work on `O=c1[nH]ccc2cc(F)c(NS(=O)(=O)c3ccc(N4CC[C@@H](O)C4)s3)cc12` yielded a permeability [1] of 0.2%, a concentration at 1 h [2] of 8.5 µM and a fraction unbound [3] of 0.06. The GI50 (NCI-H460 [4]) was 25 nM, the GI50 (NCI-H460 [5]) was 6580 nM and the GI50 (MDA-MB-231) was 44 nM. For the same molecule, the CL free (Mus musculus [6]) was 78 mL/min/kg, the Vduss (Mus musculus [7]) was 12 L/kg and the fAUC (Mus musculus [8]) was 1.279 µM·h. The fCmax (Mus musculus [9]) was 289 nM, the “fold change (FC)” value (Mus musculus [10]) was >100 and the “fold change (FC)” value (Mus musculus [11]) was 80. For the same molecule, the IC50 [12] was > 100000 nM, the IC50 [13] was > 100000 nM and the IC50 [14] was > 100000 nM. For the same molecule, the metabolised [15] was < 10%, the inhibition at 10 µM (CYP3A4) was < 10% and the inhibition at 10 µM (CYP2D6) was < 10%. The inhibition at 10 µM (CYP2C9) was < 10%, the IC50 [16] was 85 nM and the Activity [17] was 16%. For the same molecule, the Activity (Mus musculus [18]) was “Non-Toxic”, the “fold change (FC)” value (Mus musculus [19]) was 30 and the “fold change (FC)” value (Mus musculus [20]) was 10. For the same molecule, the “fold change (FC)” value (Mus musculus [21]) was 16 and the TGI (MDA-MB-231met2) was “Dose-dependent effect”.
